The text below walks through data of patent US9572881B2, “Halogenated compounds for photodynamic therapy” (Nanoquantum Sciences, Inc., priority 2012, dated 2017).

Several values for one entry are separate records, joined by “and”; a condition that tells them apart may be missing. Identical values can stand only once.

A short description of series [1]: Phototoxicity (glow lamp) and dark toxicity by hemolysis of bovine erythrocytes. The format is cell-based. The following applies: bovine, bovine erythrocytes, Glow Lamp; for hemolysis at 30 min, 0.5 µM: exposure 30 min. As for the experimental part:
(§1) Bovine erythrocytes were isolated from blood plasma stored with sodium citrate. 1 mL of bovine blood was treated at centrifuge (3,000 rpm) for 10 min to precipitate erythrocytes. The supernatant was decanted, 2 mL of physiological solution were added, treated and erythrocytes were precipitated with centrifuge. The washing procedure was repeated for 3 times and the precipitated erythrocytes were collected. […] Cells were dye-incubated for 45 minutes at 37° C. in the dark. Then the examined suspensions of cells (erythrocytes) were placed at a distance of 30-cm from a 250 W glow red-lamp equipped with a water-based heat filter and irradiated with occasional stirring. After irradiation, cells were stored at 4° C. for 15 hours. […] The hemolysis level (percentage of hemolyzed cells) was determined as the ratio of absorbances of the supernatant and a solution of 100% hemolysed cells. The 100% hemolysis was taken as the value obtained when the given number of erythrocytes were suspended in distilled water.

The next series has as its system bovine erythrocytes. Described as above. It counts as cell-based. As to conditions: Dark. As for the experimental part: as §1
Series [2] in a line: Absorption spectra and extinction coefficients of dyes. It counts as physicochemical. As for the experimental part:
Absorption spectra were measured at RT on a Perking Elmer Lambda 35 UV/Vis spectrophotometer. […] The stock solution was diluted (1:2000) and the absorbance was measured in a 5-cm standard quartz cell. All dye concentrations were in the range of 1.1 to 2.0×10^−7 M. The extinction coefficients were calculated according to Lambert-Beer's law.

Series [3] can be described thus: Singlet oxygen quantum yield, DPBF scavenger method in ethanol. The format is physicochemical. The following applies: measured in ethanol, 650 nm laser, ICG reference.
Procedure: The modified relative photochemical method of Spiller W. et al. (J. Porphyrins Phthalocyanines, 1998, V. 2, 145-158) utilizing 1,3-diphenylisobenzofuran (DPBF) as a chemical scavenger was used to determine the photosensitiser's singlet oxygen quantum yields (ΦΔ) in ethanol solutions.
Ethanolic solutions containing DPBF (10 μM) and sensitizers with absorbance (optical density) in a range between 0.09 and 0.10 at 650 nm (measured in a standard 1-cm quartz cell) were prepared. Samples were saturated with oxygen by bubbling. Next, 3 mL of the solution were placed in a 1-cm cell equipped with a stirring bar and a 10 mW, 650 nm diode laser was hermetically attached to the top of cuvette so as to avoid solvent evaporation and to provide a light beam direction from top to bottom of the cuvette. The solution in the cuvette was irradiated with the diode laser under continuous stirring for a certain time. DPBF consumption was determined by monitoring DPBF bleaching over irradiation time using absorption spectroscopy at 411 nm (extinction coefficient 22,000 M^−1 cm^−1). At least six absorption spectra were obtained for each solution at different irradiation times until the DPBF absorbance reduced at least to the 10% of the initial absorbance.
The decrease of DPBF absorbance at 411 nm versus irradiation time was plotted for each photosensitizer and the DPBF degradation rate constant (K) characterizing the reaction rate of singlet oxygen with DPBF in presence of a sensitizer was calculated.
A short description of series [4]: Fluorescence emission spectra and quantum yield relative to HITC. The following applies: for QY (fluor): given as fraction in synthesis example. The format is physicochemical. Here is the method:
Fluorescence spectra for the dyes were determined at RT on a Varian Cary Eclipse spectrofluorometer in a standard 1-cm quartz cell. The spectra were corrected. All concentrations of the fluorophores were chosen to be between 0.2 and 1.0 μM.
For the determination of the quantum yields (QY), the integrated relative intensities of the dyes or dye-protein conjugates, were measured against HITC as the reference. All absorbances at excitation wavelength (λexc) were in the range of 0.04-0.08 (when measured in a 1-cm cell).
The QY of each sample was independently measured 3-4 times and the average value was calculated.

The conditions of series [5]: cited from earlier work.
For series [6] the following is noted: ethanol; reference value from Cardillo et al.; cited from earlier work.
The conditions of series [7]: background statement, at ~780 nm; cited from earlier work.

For `CN1\C(=C/C=C/C=C/C=C/C2=[N+](C)c3ccc(I)cc3C2(C)C)C(C)(C)c2cc(I)ccc21.[I-]` [I-25], the hemolysis at 60 min, 0.1 µM in series [1] (exposure 60 min) amounted to 39%. In series [1], this molecule yielded a hemolysis at 30 min, 0.5 µM of 83%. Moreover, the Hemolysis with bovine erythrocytes (50 μM) is 51%. For the same molecule, the results for the Absorption max. in series [2] (Chloroform), in series [2] (Methanol) and in series [2] (Water) were 771 nm, 753 nm and 750 nm, respectively. For the same molecule, the “Singlet oxygen generation quantum yield ΦΔ” value in series [3] turned out to be 20%. The Emission max. in series [4] (Chloroform) stood at 801 nm; in series [4] (Methanol), 784 nm; in series [4] (Water) it was 779 nm. The Fluorescence quantum yield in series [4] (Methanol) is given as 30%.
As to `CC1(CCCCCC(=O)O)C(/C=C/C=C/C=C/C=C2\N(CCCS(=O)(=O)O)c3cc(I)c(I)c(I)c3C2(C)CCCCCC(=O)O)=[N+](CCCS(=O)(=O)[O-])c2cc(I)c(I)c(I)c21` (centres unmarked) [I-86, 3-(3-(5-carboxypentyl)-2-7-[3-(5-carboxypentyl)-4,5,6-triiodo-3-methyl-1-(3-sulfopropyl)-2,3-dihydro-1H-2-indolyliden]-1,3,5-heptatrienyl-4,5,6-triiodo-3-methyl-3H-1-indoliumyl)-1-propanesulfonate], the hemolysis at 60 min, 0.1 µM in series [1] (exposure 60 min) came to 70%. Further, the hemolysis at 30 min, 0.5 µM in series [1] was 74%. The molecule also had a Hemolysis with bovine erythrocytes (10 μM) of 3%. The Absorption max. in series [2] (BSA conjugate) was 778 nm; in series [2] (Methanol), 765 nm; in series [2] (Water), 721 nm and 760 nm. The “Extinction Coefficient” value in series [2] (Methanol) is recorded as 210,000 M^−1cm^−1; in series [2] (Water), 100,000 M^−1cm^−1. Besides, in series [2] (water, synthesis example, no unit), the “Extinction coefficient ε at λmax (abs)” value is 210,000. In addition, the “Singlet oxygen generation quantum yield ΦΔ” value in series [3] was determined as 13%. In addition, the results for the Emission max. in series [4] (BSA conjugate), in series [4] (Methanol) and in series [4] (Water) were 796 nm, 795 nm and 786 nm, respectively. In addition, the Fluorescence quantum yield in series [4] (BSA conjugate, subject to D/P) was 5-7%; in series [4] (Methanol) it was 44%. Moreover, the “QY (fluor)” value in series [4] (methanol) is 0.44; in series [4] (water), 0.006.
For the molecule `CN1\C(=C/C=C/C=C/C=C/C2=[N+](C)c3cc(I)cc(I)c3C2(C)C)C(C)(C)c2c(I)cc(I)cc21.[I-]` [I-71, 2-[7-(4,6-diiodo-1,3,3-trimethyl-2,3-dihydro-1H-2-indolyliden)-1,3,5-heptatrienyl]-4,6-diiodo-1,3,3-trimethyl-3H-indolium iodide], the hemolysis at 60 min, 0.1 µM in series [1] (exposure 60 min) worked out at 21%. For the same molecule, in series [1], the hemolysis at 30 min, 0.5 µM was 75%. Further, the Hemolysis in the series with bovine erythrocytes (5 μM) is 2%. This molecule came in with a Hemolysis with bovine erythrocytes (50 μM) of 30%. The Absorption max. in series [2] (Methanol) is 745 nm. In series [3], the “Singlet oxygen generation quantum yield ΦΔ” value was found to be 19%. For the same molecule, in series [4] (Methanol), the Emission max. amounted to 773 nm and the Fluorescence quantum yield is given as 46%. The “QY (fluor)” value in series [4] (methanol) worked out at 0.46.
In turn, `CN1\C(=C/C=C/C=C/C=C/C2=[N+](C)c3cc(I)c(I)c(I)c3C2(C)C)C(C)(C)c2c1cc(I)c(I)c2I.[I-]` [I-76, 4,5,6-triiodo-1,3,3-trimethyl-2-[7-(4,5,6-triiodo-1,3,3-trimethyl-2,3-dihydro-1H-2-indolyliden)-1,3,5-heptatrienyl]-3H-indolium iodide] had a hemolysis at 60 min, 0.1 µM in series [1] (exposure 60 min) of 43%. Also, in series [1], the hemolysis at 30 min, 0.5 µM is 46%. In the series on bovine erythrocytes (5 μM), this molecule yielded a Hemolysis of 2%. This molecule gave a Hemolysis in the series on bovine erythrocytes (50 μM) of 12%. Further, the Absorption max. in series [2] (Methanol) was 754 nm and 755 nm. Moreover, the “Singlet oxygen generation quantum yield ΦΔ” value in series [3] came out at 50%. In series [4] (Methanol), the Emission max. was found to be 785 nm and the Fluorescence quantum yield is 43%.
`CN1\C(=C/C=C/C=C/C=C/C2=[N+](C)c3ccccc3C2(C)C)C(C)(C)c2ccccc21.[I-]` [HITC, 1,1′,3,3,3′,3′-hexamethylindotricarbocyanine, reference compound]: the hemolysis at 60 min, 1 µM in series [1] (1 μM, exposure 60 min) was 4.4%. Further, the hemolysis at 120 min, 1 µM in series [1] (1 μM, exposure 120 min) was found to be 5.4%. Further, the hemolysis at 60 min, 5 µM in series [1] (5 μM, exposure 60 min) stood at 65%. Besides, in series [1] (5 μM, exposure 120 min), the hemolysis at 120 min, 5 µM stood at 74%. The Hemolysis is 2.0% with bovine erythrocytes (5 μM) and 6.7% in the series on bovine erythrocytes (10 μM). Moreover, the QY of reference in series [5] (in methanol, reference standard) is recorded as 28%. The Absorption max. in series [2] (Methanol) was found to be 740 nm. Further, the “Singlet oxygen generation quantum yield ΦΔ” value in series [3] came to 5%. Also, the Emission max. in series [4] (Methanol) is given as 768 nm. For the same molecule, in series [4] (Methanol), the Fluorescence quantum yield stood at 28%.
In the case of `CC1(C)C(/C=C/C=C/C=C/C=C2\N(CCCCS(=O)(=O)[O-])c3ccc4ccccc4c3C2(C)C)=[N+](CCCCS(=O)(=O)[O-])c2ccc3ccccc3c21.[Na+]` [ICG, Indocyanine green, reference compound], the “quantum yield (reporter)” value in series [5] (in water, background statement) is recorded as 0.5-1.3%. In addition, the “singlet oxygen quantum yield ΦΔ of reference” value in series [6] is on record as 12%. Besides, the “Extinction Coefficient” value in series [2] (Methanol) is reported as 200,000 M^−1cm^−1; in series [2] (Water), 114,000 M^−1cm^−1. For the same molecule, the “Singlet oxygen generation quantum yield ΦΔ” value in series [3] is recorded as 12%. Also, the Emission max. in series [4] (Methanol) was determined as 818 nm; in series [4] (Water) it was 810 nm. In series [4] (Methanol), this molecule returned a Fluorescence quantum yield of 16%. In series [7], the extinction coefficients is 200,000 M^−1 cm^−1.
